± gives the standard deviation of the averaged measurements.
Tests used:
[1] = test system: HSC1 (primary human Schwann cells); test: drug sensitivity score (DSS, CellTox-Green cytotoxicity, 72 h) (DSS (dimensionless)); higher = more cytotoxic; extreme values may be limits of the assay
Procedure, shortened: (§1)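 MPNST cell lines and primary human Schwann cells were incubated 72 h at 37 °C in 384-well plates holding five 10-fold compound dilutions. CellTox-Green was added before seeding at a final 1:1000 dilution and reported fluorescence from DNA released by disrupted cells. Signals were scaled to vehicle and positive-control wells, and cultures failing plate quality control were dropped. Drug sensitivity score and relative IC50 come from four-parameter logistic fits, with IC50 censored at the top concentration.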

STS26T [2] = test: as above
Procedure, shortened: as §1

[3] = test system: HSC2 (primary human Schwann cells); test: as above
Procedure, shortened: as §1

S1507-2 [4] = test: as above
Procedure, shortened: as §1

ST8814 [5] = test: as above
Procedure, shortened: as §1

[6] = test system: HSC1 (primary human Schwann cells); test: % inhibition of CellTiter-Glo viability at highest tested concentration (72 h), relative to DMSO and benzethonium chloride controls; higher = more inhibition
Procedure, shortened: (§2)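 Viability was scored by CellTiter-Glo ATP luminescence, scaled from vehicle to positive-control wells, with duplicates averaged where present. The cells, MPNST lines and primary human Schwann cells at 750–1000 per well, sat 72 h at 37 °C, 5% CO2, in 384-well plates preprinted with each compound at five concentrations in 10-fold steps. Four-parameter logistic fits were run on the data. These fits give drug sensitivity score and relative IC50 censored at the top concentration, and percent inhibition is reported at the top concentration.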

STS26T [7] = test: as above
Procedure, shortened: as §2

S462 [8] = test: as above
Procedure, shortened: as §2

[9] = test system: HSC2 (primary human Schwann cells); test: as above
Procedure, shortened: as §2

S1507-2 [10] = test: as above
Procedure, shortened: as §2

ST8814 [11] = test: as above
Procedure, shortened: as §2

[12] = test system: HSC1 (primary human Schwann cells); test: drug sensitivity score (DSS, CellTiter-Glo viability, 72 h) (DSS (dimensionless)); higher = more sensitive; extreme values may be limits of the assay
Procedure, shortened: as §2

STS26T [13] = test: as above
Procedure, shortened: as §2

S462 [14] = test: as above
Procedure, shortened: as §2

[15] = test system: HSC2 (primary human Schwann cells); test: as above
Procedure, shortened: as §2

S1507-2 [16] = test: as above
Procedure, shortened: as §2

ST8814 [17] = test: as above
Procedure, shortened: as §2

## COC1=C2C[C@@H](C)C[C@H](OC)[C@H](O)[C@@H](C)/C=C(\C)[C@H](OC(N)=O)[C@@H](OC)/C=C\C=C(/C)C(=O)NC(=CC1=O)C2=O [Geldanamycin] (max concentration tested 10000 nM)
[1]
  drug sensitivity score: 20.4
STS26T [2]
  drug sensitivity score: 8.09
[3]
  drug sensitivity score: 20.2
S1507-2 [4]
  drug sensitivity score: 5.24 ± 1.8
ST8814 [5]
  drug sensitivity score: 2.65
[6]
  % inhibition: 96.7%
STS26T [7]
  % inhibition: 94.2%
S462 [8]
  % inhibition: 98.4 ± 1.8%
[9]
  % inhibition: 94.7%
S1507-2 [10]
  % inhibition: 97.21 ± 0.53%
ST8814 [11]
  % inhibition: 90.6%
[12]
  drug sensitivity score: 16.7
STS26T [13]
  drug sensitivity score: 12.3
S462 [14]
  drug sensitivity score: 15.8 ± 0.19
[15]
  drug sensitivity score: 16.7
S1507-2 [16]
  drug sensitivity score: 8.65 ± 0.52
ST8814 [17]
  drug sensitivity score: 12

## Nc1cccc2c1CN(C1CCC(=O)NC1=O)C2=O (stereo unspecified) [Lenalidomide] (max concentration tested 10000 nM)
[1]
  drug sensitivity score: 0
STS26T [2]
  drug sensitivity score: 0
[3]
  drug sensitivity score: 2.65
S1507-2 [4]
  drug sensitivity score: 0
ST8814 [5]
  drug sensitivity score: 0
[6]
  % inhibition: 9.28%
STS26T [7]
  % inhibition: 0.527%
S462 [8]
  % inhibition: 2.04 ± 9.8%
[9]
  % inhibition: 11%
S1507-2 [10]
  % inhibition: 10.8 ± 9.4%
ST8814 [11]
  % inhibition: 3.01%
[12]
  drug sensitivity score: 0.47
STS26T [13]
  drug sensitivity score: 0
S462 [14]
  drug sensitivity score: 0
[15]
  drug sensitivity score: 0.0019
S1507-2 [16]
  drug sensitivity score: 1.35 ± 1.9
ST8814 [17]
  drug sensitivity score: 0

## Cn1cnc2c(F)c(Nc3ccc(Br)cc3F)c(C(=O)NOCCO)cc21 [MEK-162] (max concentration tested 1000 nM)
[1]
  drug sensitivity score: 0
STS26T [2]
  drug sensitivity score: 0
[3]
  drug sensitivity score: 0
S1507-2 [4]
  drug sensitivity score: 0
ST8814 [5]
  drug sensitivity score: 0
[6]
  % inhibition: 15.1%
STS26T [7]
  % inhibition: 24.5%
S462 [8]
  % inhibition: 29.8 ± 0.71%
[9]
  % inhibition: -2.17%
S1507-2 [10]
  % inhibition: 19.9 ± 8.2%
ST8814 [11]
  % inhibition: 23.8%
[12]
  drug sensitivity score: 0.0621
STS26T [13]
  drug sensitivity score: 2.04
S462 [14]
  drug sensitivity score: 2.73 ± 0.038
[15]
  drug sensitivity score: 0
S1507-2 [16]
  drug sensitivity score: 1.31 ± 1.3
ST8814 [17]
  drug sensitivity score: 1.66

## NC(=O)c1cccc2cn(-c3ccc(C4CCCNC4)cc3)nc12 (stereo unspecified) [MK-4827] (max concentration tested 10000 nM)
[1]
  drug sensitivity score: 0
STS26T [2]
  drug sensitivity score: 0.673
[3]
  drug sensitivity score: 0
S1507-2 [4]
  drug sensitivity score: 0.763 ± 1.1
ST8814 [5]
  drug sensitivity score: 4.56
[6]
  % inhibition: 40%
STS26T [7]
  % inhibition: 67.6%
S462 [8]
  % inhibition: 86.1 ± 3%
[9]
  % inhibition: 23.4%
S1507-2 [10]
  % inhibition: 57.5 ± 6.1%
ST8814 [11]
  % inhibition: 89.5%
[12]
  drug sensitivity score: 2.86
STS26T [13]
  drug sensitivity score: 6.01
S462 [14]
  drug sensitivity score: 8.55 ± 0.22
[15]
  drug sensitivity score: 1.47
S1507-2 [16]
  drug sensitivity score: 5.09 ± 0.48
ST8814 [17]
  drug sensitivity score: 8.12

## CC(=O)O[C@]1(C(C)=O)CC[C@H]2[C@@H]3C=C(C)C4=CC(=O)CC[C@]4(C)[C@H]3CC[C@@]21C [Megestrol] (max concentration tested 10000 nM)
[1]
  drug sensitivity score: 0
STS26T [2]
  drug sensitivity score: 0
[3]
  drug sensitivity score: 0
S1507-2 [4]
  drug sensitivity score: 0
ST8814 [5]
  drug sensitivity score: 0
[6]
  % inhibition: 9.41%
STS26T [7]
  % inhibition: 1.5%
S462 [8]
  % inhibition: 2.52 ± 6.2%
[9]
  % inhibition: 8.15%
S1507-2 [10]
  % inhibition: -2.04 ± 5.3%
ST8814 [11]
  % inhibition: 4.75%
[12]
  drug sensitivity score: 0
STS26T [13]
  drug sensitivity score: 0
S462 [14]
  drug sensitivity score: 0
[15]
  drug sensitivity score: 0
S1507-2 [16]
  drug sensitivity score: 0
ST8814 [17]
  drug sensitivity score: 0

## N[C@@H](Cc1ccc(N(CCCl)CCCl)cc1)C(=O)O [Melphalan aq] (max concentration tested 12500 nM)
[1]
  drug sensitivity score: 0
STS26T [2]
  drug sensitivity score: 0
[3]
  drug sensitivity score: 0
S1507-2 [4]
  drug sensitivity score: 0
ST8814 [5]
  drug sensitivity score: 0
[6]
  % inhibition: 18.7%
STS26T [7]
  % inhibition: 2.1%
S462 [8]
  % inhibition: 5.6 ± 3%
[9]
  % inhibition: 6.78%
S1507-2 [10]
  % inhibition: 6.15 ± 8.2%
ST8814 [11]
  % inhibition: 3.22%
[12]
  drug sensitivity score: 0.445
STS26T [13]
  drug sensitivity score: 0
S462 [14]
  drug sensitivity score: 0
[15]
  drug sensitivity score: 0
S1507-2 [16]
  drug sensitivity score: 0
ST8814 [17]
  drug sensitivity score: 0

## CCN(CC)CCCC(C)Nc1c2ccc(Cl)cc2nc2ccc(OC)cc12 (stereo unspecified) [Mepacrine aq] (max concentration tested 50000 nM)
[1]
  drug sensitivity score: 20.7
STS26T [2]
  drug sensitivity score: 15.8
[3]
  drug sensitivity score: 19.6
S1507-2 [4]
  drug sensitivity score: 23.5 ± 4.6
ST8814 [5]
  drug sensitivity score: 14.7
[6]
  % inhibition: 95.9%
STS26T [7]
  % inhibition: 96.5%
S462 [8]
  % inhibition: 95.06 ± 0.61%
[9]
  % inhibition: 95%
S1507-2 [10]
  % inhibition: 98.51 ± 0.17%
ST8814 [11]
  % inhibition: 96.3%
[12]
  drug sensitivity score: 18.6
STS26T [13]
  drug sensitivity score: 18.9
S462 [14]
  drug sensitivity score: 20.5 ± 1.6
[15]
  drug sensitivity score: 18
S1507-2 [16]
  drug sensitivity score: 19.92 ± 0.17
ST8814 [17]
  drug sensitivity score: 20.5

## CN(C)C(=N)NC(=N)N [Metformin aq] (max concentration tested 100000 nM)
[1]
  drug sensitivity score: 0
STS26T [2]
  drug sensitivity score: 0
[3]
  drug sensitivity score: 0
S1507-2 [4]
  drug sensitivity score: 0.0766 ± 0.11
ST8814 [5]
  drug sensitivity score: 0
[6]
  % inhibition: -13.1%
STS26T [7]
  % inhibition: 5.16%
S462 [8]
  % inhibition: 1.42 ± 6.1%
[9]
  % inhibition: -15.5%
S1507-2 [10]
  % inhibition: 6.36 ± 5.3%
ST8814 [11]
  % inhibition: 7.41%
[12]
  drug sensitivity score: 0
STS26T [13]
  drug sensitivity score: 0
S462 [14]
  drug sensitivity score: 0
[15]
  drug sensitivity score: 0
S1507-2 [16]
  drug sensitivity score: 0
ST8814 [17]
  drug sensitivity score: 0

Reference: the supplement of paper PMC5579334
